Where two headings read alike, the source gives them in different places.
Key:
non-expressing oocytes [1] = test: cells; type: cell-based, Xenopus laevis; details: Xenopus laevis, total [3H]CQ transport; for inhibition at 500 µM: [test solute] = 0.5 mM; for inhibition at 1000 µM: [test solute] = 1 mM; for inhibition at 2000 µM: [test solute] = 2 mM
Method in brief: (§1)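 Using pH 5.5 ND96 at 27.5 °C, uptake is followed for 1.5 h, stopped with ice-cold buffer, and quantified as accumulated radioactivity per oocyte after SDS lysis.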

PfCRT^3D7 [2] = target: T1, PfCRT^3D7 (Plasmodium falciparum, UniProt Q8IBZ9); test: cell-based; type: cell-based; details: total [3H]CQ transport; for inhibition at 500 µM: [test solute] = 0.5 mM; for inhibition at 1000 µM: [test solute] = 1 mM; for inhibition at 2000 µM: [test solute] = 2 mM
T1 sequence (Q8IBZ9 59-398): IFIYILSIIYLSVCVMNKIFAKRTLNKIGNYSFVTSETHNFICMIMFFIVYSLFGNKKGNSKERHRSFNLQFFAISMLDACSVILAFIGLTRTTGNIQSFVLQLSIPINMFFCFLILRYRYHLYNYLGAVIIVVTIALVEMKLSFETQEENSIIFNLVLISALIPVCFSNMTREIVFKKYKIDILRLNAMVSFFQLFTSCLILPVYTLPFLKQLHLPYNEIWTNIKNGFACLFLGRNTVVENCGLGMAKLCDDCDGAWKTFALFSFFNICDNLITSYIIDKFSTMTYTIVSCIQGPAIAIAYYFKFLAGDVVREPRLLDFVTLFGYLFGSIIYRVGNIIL
Method in brief: as §1

PfCRT^Dd2 [3] = target: T2, PfCRT^Dd2 (Plasmodium falciparum, UniProt Q9N623, A220S/I356T/K76T/M74I/N326S/N75E/Q271E/R371I); test: [3H]CQ uptake into Xenopus oocytes, cis-inhibition by unlabelled solute; type: cell-based
T2 sequence (Q9N623 whole entry A220S/I356T/K76T/M74I/N326S/N75E/Q271E/R371I): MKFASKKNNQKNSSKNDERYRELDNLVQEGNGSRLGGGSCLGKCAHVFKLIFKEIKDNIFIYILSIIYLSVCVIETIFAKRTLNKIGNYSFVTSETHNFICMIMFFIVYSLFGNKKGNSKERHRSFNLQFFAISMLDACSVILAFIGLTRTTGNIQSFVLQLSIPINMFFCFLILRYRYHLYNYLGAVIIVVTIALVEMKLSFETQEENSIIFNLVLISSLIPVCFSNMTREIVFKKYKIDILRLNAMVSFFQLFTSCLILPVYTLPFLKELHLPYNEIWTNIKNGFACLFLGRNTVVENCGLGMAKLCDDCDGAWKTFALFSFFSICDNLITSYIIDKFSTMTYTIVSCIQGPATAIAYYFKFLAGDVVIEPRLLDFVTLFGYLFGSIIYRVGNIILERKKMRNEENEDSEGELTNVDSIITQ
Method in brief: as §1

PfCRT^Ecu1110 [4] = target: T3, PfCRT^Ecu1110 (Plasmodium falciparum, UniProt Q9N623, A220S/I356L/K76T/N326D); test: as above; type: cell-based
T3 sequence (Q9N623 whole entry A220S/I356L/K76T/N326D): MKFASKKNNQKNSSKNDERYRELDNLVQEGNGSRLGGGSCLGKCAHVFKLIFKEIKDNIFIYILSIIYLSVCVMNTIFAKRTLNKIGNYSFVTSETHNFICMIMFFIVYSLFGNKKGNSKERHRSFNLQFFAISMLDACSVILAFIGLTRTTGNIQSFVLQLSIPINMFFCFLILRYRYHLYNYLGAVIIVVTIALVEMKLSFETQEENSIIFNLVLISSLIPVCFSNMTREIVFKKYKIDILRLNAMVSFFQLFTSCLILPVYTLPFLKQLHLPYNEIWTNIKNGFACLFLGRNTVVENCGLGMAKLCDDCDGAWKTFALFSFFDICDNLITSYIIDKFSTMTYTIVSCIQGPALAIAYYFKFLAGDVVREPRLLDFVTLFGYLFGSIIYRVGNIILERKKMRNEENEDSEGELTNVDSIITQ
Method in brief: as §1

non-expressing oocytes [5] = type: cell-based, Xenopus laevis; details: total [3H]CQ transport; for Uptake of [3H]CQ (% non-expressing oocyte control), trans-stimulation: non-expressing oocytes, normalised to the oocyte type control; for Uptake of [3H]CQ (% PfCRTDd2 control), trans-stimulation, non-expressing oocytes: mean ± SEM, SEM
Method in brief: (§2)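 Oocytes (ten per treatment, ≥4 independent frogs/days) were preloaded by injecting VF-6 in 25 nL ND96 at pH 5.0, 5.5, 6.0 or 7.0, or Na^+-free choline buffer, then uptake run 1.5 h, 27.5 °C, ND96 pH 5.5 by default. Internal concentrations assumed ~400 nL oocyte volume.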

PfCRT^3D7 [6] = target: T1, PfCRT^3D7; test: cell-based; type: cell-based
Method in brief: as §2

PfCRT^Dd2 [7] = target: T2, PfCRT^Dd2; test: cell-based; type: cell-based; details: […]; for activity at 45000 µM: [test solute]i = 45 mM (30 mM for some solutes due to solubility)
Method in brief: as §2

PfCRT^Ecu1110 [8] = target: T3, PfCRT^Ecu1110; test: cell-based; type: cell-based; details: […]
Method in brief: as §2

PfNT1 = target: T4, PfNT1 (Plasmodium falciparum, UniProt Q8IDM6); test: cell-based; type: cell-based; details: for activity at 5000 µM: total [3H]CQ transport
T4 construct: expressed in transfected cells; host or cells: Xenopus laevis oocytes (stage V-VI), cRNA-injected
T4 sequence (Q8IDM6 whole entry): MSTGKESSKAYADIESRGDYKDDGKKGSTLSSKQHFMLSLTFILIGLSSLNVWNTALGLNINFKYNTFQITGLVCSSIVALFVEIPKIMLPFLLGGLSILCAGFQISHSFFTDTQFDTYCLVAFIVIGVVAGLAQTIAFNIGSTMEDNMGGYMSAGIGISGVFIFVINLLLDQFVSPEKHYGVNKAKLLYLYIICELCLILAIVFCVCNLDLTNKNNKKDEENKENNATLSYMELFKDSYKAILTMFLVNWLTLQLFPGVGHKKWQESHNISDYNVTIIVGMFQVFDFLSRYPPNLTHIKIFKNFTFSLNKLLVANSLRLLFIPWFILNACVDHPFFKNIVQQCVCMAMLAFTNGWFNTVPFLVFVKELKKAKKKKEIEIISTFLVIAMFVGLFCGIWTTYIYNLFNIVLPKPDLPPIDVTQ
Method in brief: as §2

PfCRT [9] = test: Influx of VF-6 via PfCRT into the oocyte, solutes tested as potential co-substrates; type: cell-based, Plasmodium falciparum; design: key: X: Compounds that have been tested as potential co-substrates but are not required for influx of VF-6 via PfCRT into the oocyte; details: X marks the solute
PfCRT [10] = test: Potential co-substrates tested for influx of VF-6 via PfCRT into the oocyte; type: cell-based, Plasmodium falciparum; design: key: X: Compounds that have been tested as potential co-substrates but are not required for influx of VF-6 via PfCRT into the oocyte
[11] = Oocyte, mean ± SEM, SEM, read-out: Uptake of [3H]CQ (% PfCRTDd2 control), cis-inhibition, non-expressing oocytes
[12] = non-expressing oocytes, normalised to the oocyte type control, read-out: Uptake of [3H]CQ (% non-expressing oocyte control), cis-inhibition
[13] = PfCRT3D7 oocytes, normalised to the oocyte type control, read-out: Uptake of [3H]CQ (% PfCRT3D7 control), cis-inhibition
[14] = mean ± SEM, SEM, read-out: Uptake of [3H]CQ (% PfCRTDd2 control), cis-inhibition, PfCRT3D7
[15] = read-out: PfCRT-mediated [3H]CQ transport, cis-inhibition (% PfCRTDd2 control)
[16] = read-out: Uptake of [3H]CQ (% PfCRTDd2 control), cis-inhibition, PfCRTDd2, SEM
[17] = read-out: PfCRT-mediated [3H]CQ transport, cis-inhibition (% PfCRTEcu1110 control)
[18] = read-out: Uptake of [3H]CQ (% PfCRTDd2 control), cis-inhibition, PfCRTEcu1110, SEM
[19] = read-out: Uptake of [3H]CQ (% PfCRTEcu1110 control), cis-inhibition
[20] = read-out: [3H]CQ transport (% PfCRTEcu1110 control), cis-inhibition, PfCRTEcu1110, SEM

Work on `N[C@@H](CO)C(=O)O` [L-serine] yielded an inhibition at 500 µM (non-expressing oocytes [1]; [11]) of 2.9 ± 0.06%, an inhibition at 1000 µM (non-expressing oocytes [1]; [11]) of 3.6 ± 0.09% and an inhibition at 2000 µM (non-expressing oocytes [1]; [11]) of 3.2 ± 0.1%. The inhibition at 500 µM (non-expressing oocytes [1]; [12]) was 100 ± 4.3%, the inhibition at 1000 µM (non-expressing oocytes [1]; [12]) was 99 ± 3.7% and the inhibition at 2000 µM (non-expressing oocytes [1]; [12]) was 99 ± 5.2%. The inhibition at 500 µM (PfCRT^3D7 [2]; [13]) was 98 ± 3.1%, the inhibition at 1000 µM (PfCRT^3D7 [2]; [13]) was 100 ± 3.6% and the inhibition at 2000 µM (PfCRT^3D7 [2]; [13]) was 98 ± 3.6%. The inhibition at 500 µM (PfCRT^3D7 [2]; [14]) was 3.1 ± 0.06%, the inhibition at 1000 µM (PfCRT^3D7 [2]; [14]) was 2.2 ± 0.03% and the inhibition at 2000 µM (PfCRT^3D7 [2]; [14]) was 2.6 ± 0.08%. It also gave an inhibition at 500 µM (PfCRT^Dd2 [3]; [15]) of 99 ± 4.6%, an inhibition at 2000 µM (PfCRT^Dd2 [3]; [15]) of 94 ± 2.1% and an inhibition at 500 µM (PfCRT^Dd2 [3]; [16]) of 101 ± 3.3%. It also gave an inhibition at 1000 µM (PfCRT^Dd2 [3]; [16]) of 98 ± 2.6%, an inhibition at 2000 µM (PfCRT^Dd2 [3]; [16]) of 96 ± 3.5% and an inhibition at 500 µM (PfCRT^Ecu1110 [4]; [17]) of 97 ± 1.5%. For the same compound, the inhibition at 1000 µM (PfCRT^Ecu1110 [4]; [17]) was 97 ± 3.5%, the inhibition at 2000 µM (PfCRT^Ecu1110 [4]; [17]) was 98 ± 3.2% and the inhibition at 500 µM (PfCRT^Ecu1110 [4]; [18]) was 32 ± 1.9%. The inhibition at 1000 µM (PfCRT^Ecu1110 [4]; [18]) was 32 ± 2.1%, the inhibition at 2000 µM (PfCRT^Ecu1110 [4]; [18]) was 33 ± 1.8% and the inhibition at 500 µM (PfCRT^Ecu1110 [4]; [19]) was 101 ± 2.2%. It also gave an inhibition at 1000 µM (PfCRT^Ecu1110 [4]; [19]) of 101 ± 1.7%, an inhibition at 2000 µM (PfCRT^Ecu1110 [4]; [19]) of 100 ± 2.2% and an inhibition at 500 µM (PfCRT^Ecu1110 [4]; [20]) of 29 ± 1.7%. For the same compound, the inhibition at 1000 µM (PfCRT^Ecu1110 [4]; [20]) was 29 ± 1.1%, the inhibition at 2000 µM (PfCRT^Ecu1110 [4]; [20]) was 30 ± 0.6% and the “Uptake of [3H]CQ (% non-expressing oocyte control), trans-stimulation” value (non-expressing oocytes [5]; [test solute]i = 5 mM) was 100 ± 3.1 % non-expressing oocyte control. For the same compound, the “Uptake of [3H]CQ (% non-expressing oocyte control), trans-stimulation” value (non-expressing oocytes [5]; [test solute]i = 45 mM (30 mM for some solutes due to solubility)) was 101 ± 2.8 % non-expressing oocyte control, the “Uptake of [3H]CQ (% PfCRTDd2 control), trans-stimulation, non-expressing oocytes” value (non-expressing oocytes [5]; [test solute]i = 5 mM (intracellular)) was 2.8 ± 0.03 % PfCRTDd2 control and the “Uptake of [3H]CQ (% PfCRTDd2 control), trans-stimulation, non-expressing oocytes” value (non-expressing oocytes [5]; [test solute]i = 45 mM (intracellular; 30 mM for some solutes due to solubility)) was 2.2 ± 0.01 % PfCRTDd2 control. For the same compound, the activity at 5000 µM (PfCRT^3D7 [6]; PfCRT3D7 oocytes, [test solute]i = 5 mM, total [3H]CQ transport, normalised to the oocyte type control, read-out: Uptake of [3H]CQ (% PfCRT3D7 control), trans-stimulation) was 100 ± 3.6%, the “[3H]CQ transport (% PfCRT3D7 control), trans-stimulation, PfCRT3D7” value (PfCRT^3D7 [6]; SEM) was 0.3 ± 0.01 % PfCRT3D7 control and the activity at 5000 µM (PfCRT^3D7 [6]; [test solute]i = 5 mM (intracellular), PfCRT3D7 oocytes, normalised to oocyte type control, read-out: PfCRT-mediated [3H]CQ transport, trans-stimulation (% PfCRT3D7 control)) was 98 ± 4.1%. It also gave an activity at 45000 µM (PfCRT^3D7 [6]; SEM, read-out: Uptake of [3H]CQ (% PfCRTDd2 control), trans-stimulation, PfCRT3D7) of 3.3 ± 0.06%, an activity at 45000 µM (PfCRT^3D7 [6]; read-out: PfCRT-mediated [3H]CQ transport, trans-stimulation (% PfCRT3D7 control)) of 97 ± 4.5% and an activity at 45000 µM (PfCRT^3D7 [6]; read-out: Uptake of [3H]CQ (% PfCRT3D7 control), trans-stimulation) of 99 ± 3.7%. The activity at 5000 µM (PfCRT^3D7 [6]; total [3H]CQ transport, [test solute]i = 5 mM (intracellular), mean ± SEM, SEM, read-out: Uptake of [3H]CQ (% PfCRTDd2 control), trans-stimulation, PfCRT3D7) was 3.3 ± 0.06%, the activity at 5000 µM (PfCRT^Dd2 [7]; pH 5.5, read-out: PfCRT-mediated [3H]CQ transport, trans-stimulation (% PfCRTDd2 control), [test solute]i = 5 mM (intracellular), PfCRTDd2 oocytes, normalised to oocyte type control) was 97 ± 4.4% and the activity at 5000 µM (PfCRT^Dd2 [7]; pH 5.5, read-out: Uptake of [3H]CQ (% PfCRTDd2 control), trans-stimulation, PfCRTDd2, total [3H]CQ transport, [test solute]i = 5 mM (intracellular), mean ± SEM, SEM) was 99 ± 3.2%. The activity at 5000 µM (PfCRT^Dd2 [7]; pH 5.5, read-out: Uptake of [3H]CQ (% PfCRTDd2 control), trans-stimulation, PfCRTDd2 oocytes, [test solute]i = 5 mM, total [3H]CQ transport, normalised to the oocyte type control) was 99 ± 3.2%, the activity at 45000 µM (PfCRT^Dd2 [7]; pH 5.5, read-out: Uptake of [3H]CQ (% PfCRTDd2 control), trans-stimulation, PfCRTDd2 oocytes, total [3H]CQ transport, normalised to the oocyte type control) was 100 ± 2.9% and the activity at 5000 µM (PfCRT^Dd2 [7]; pH 5.5, read-out: [3H]CQ transport (% PfCRTDd2 control), trans-stimulation, PfCRTDd2, trans-stimulation, [test solute]i = 5 mM (injected), PfCRT-mediated component (background subtracted), mean ± SEM, SEM) was 97 ± 4.4%. For the same compound, the activity at 45000 µM (PfCRT^Dd2 [7]; pH 5.5, read-out: [3H]CQ transport (% PfCRTDd2 control), trans-stimulation, PfCRTDd2, trans-stimulation, PfCRT-mediated component (background subtracted), mean ± SEM, SEM) was 98 ± 3.6%, the activity at 5000 µM (PfCRT^Ecu1110 [8]; pH 5.5, read-out: PfCRT-mediated [3H]CQ transport, trans-stimulation (% PfCRTEcu1110 control), [test solute]i = 5 mM (intracellular), PfCRTEcu1110 oocytes, normalised to oocyte type control) was 98 ± 3.1% and the activity at 5000 µM (PfCRT^Ecu1110 [8]; pH 5.5, read-out: Uptake of [3H]CQ (% PfCRTEcu1110 control), trans-stimulation, PfCRTEcu1110 oocytes, [test solute]i = 5 mM, total [3H]CQ transport, normalised to the oocyte type control) was 100 ± 2.5%. It also gave an activity at 45000 µM (PfCRT^Ecu1110 [8]; pH 5.5, read-out: Uptake of [3H]CQ (% PfCRTEcu1110 control), trans-stimulation, PfCRTEcu1110 oocytes, [test solute]i = 45 mM (30 mM for some solutes due to solubility), total [3H]CQ transport, normalised to the oocyte type control) of 98 ± 3.1%, an activity at 5000 µM (PfCRT^Ecu1110 [8]; read-out: Uptake of [3H]CQ (% PfCRTDd2 control), trans-stimulation, PfCRTEcu1110, total [3H]CQ transport, [test solute]i = 5 mM (intracellular), mean ± SEM, SEM) of 36 ± 1.7% and an activity at 45000 µM (PfCRT^Ecu1110 [8]; read-out: Uptake of [3H]CQ (% PfCRTDd2 control), trans-stimulation, PfCRTEcu1110, total [3H]CQ transport, [test solute]i = 45 mM (intracellular; 30 mM for some solutes due to solubility), mean ± SEM, SEM) of 35 ± 1.6%. It also gave an activity at 5000 µM (PfNT1; PfNT1 oocytes, [test solute]i = 5 mM, normalised to the oocyte type control, read-out: Uptake of [3H]CQ (% PfNT1 control), trans-stimulation) of 98 ± 2.6%, an activity at 45000 µM (PfNT1; SEM, read-out: Uptake of [3H]CQ (% PfCRTDd2 control), trans-stimulation, PfNT1) of 2.3 ± 0.06% and an activity at 45000 µM (PfNT1; read-out: Uptake of [3H]CQ (% PfNT1 control), trans-stimulation) of 98 ± 2.6%. For the same compound, the activity at 5000 µM (PfNT1; [test solute]i = 5 mM (intracellular), mean ± SEM, SEM, read-out: Uptake of [3H]CQ (% PfCRTDd2 control), trans-stimulation, PfNT1) was 3 ± 0.02%, the “Compounds that have been tested as potential co-substrates but are not required for influx of VF-6 via PfCRT into the oocyte” value (PfCRT [9]) was “X” and the “Tested as potential co-substrate but not required for influx of VF-6 via PfCRT into the oocyte” value (PfCRT [10]) was “X”.

Reference: PMC7413254 (Nature Communications, 2020)
